Drawing on patent US4755529A, “Guaiazulene derivatives and their methods of use” (Harbor Branch Oceanographic Institution Inc., priority 1986, dated 1988), this text covers MIC, IC50 and activity for three compounds.

In brackets after ≈: the same amount, converted by molar mass.

The subject of test [1] is C. albicans. Kind of test: Minimum inhibitory concentration (MIC), anti-Candida assay. It counts as cell-based. Particulars: approximately 1000 cells/mL, 37° C. overnight. Here is the method: Candida albicans: C. albicans (Ca) is grown on Sabouraud dextrose agar to produce single colonies one of which is used to inoculate Sabouraud dextrose broth. The broth is incubated at 37° C. with shaking at 200 rpm for 18 hrs., the resultant culture is frozen with 10% (v/v) glycerol at -80° C. and used as the inoculum for the anti-Candida assay. Two-fold dilutions of the drug are prepared in 50 μL volumes of Sabouraud dextrose broth using 96-well microtiter plates. An inoculum of C. albicans is added in a small volume to give a cell density of approximately 1000 cells/mL. Plates are incubated at 37° C. overnight. 10 uL of Triphenyl tetrazolium chloride (1% w/v) is then added to each well; a further 2 hour incubation results in a deep coloration of the microorganism.

Test [2] deals with P388 mouse leukemia cells. Kind of test: P388 mouse leukemia cell assay. Particulars: 48 hours. It counts as cell-based. Here is the method: P388 mouse leukemia cells are grown in Dulbecco MEM medium with 10% horse serum 4 mM, glutamine, and 20 μg/ml gentamycin (Biologos, Inc.). Cells are incubated in 10% CO2 and subcultured 2 times per week.
1. Add composition to each well of a 24-well plate or tube and allow solvent to evaporate to dryness.
2. Add 2 ml (1.2×10^5) cells to each well or tube and mix.
3. Incubate in 10% CO2 at 37° for 48 hours.
4. Read plates with an inverted microscope, scoring activity from 1+ to 4+ as follows: ND (not detectable), >90%, 1+, 75-90%; 2+, 50-74%; 3+, 25-49%; 4+, <25% of control growth. Alternatively, scoring may be expressed as IC50 which represents the minimum concentration of the composition required to inhibit 50% of the cell growth on the plate. Cell counts are performed on each tube and results are reported as percent of control.

Test [3] has as its system mixed lymphocytes (BALB/c+C57BL/6). Kind of test: Mixed lymphocyte reaction (MLR) assay. The class given is cell-based, murine. The following applies: Mus musculus, percent of positive control, 3H-thymidine, immunostimulatory criterion 150% or greater, read-out: Immunomodulatory activity, % Reference; for activity at 5 µg/mL: 5 ug/ml; for activity at 50 µg/mL: 50 ug/ml. Here is the method:
The assay method was uded to identify immune response modifiers of the compositions of Formulae I-III corresponding to composition 1-3 of the samples.
Aseptically removed spleens from BALB/c and C57BL/6 mice were homogenized, separately, in RPMI 1640 medium with 10% fetal calf serum, 2% L-glutamine,15 mM HEPES, 1% antibiotic-antimycotic solution and 25 μg/ml gentamycin (GIBCO). Lymphocytes were then derived by differential cetrifugation after red blood cell lysing and serial cell washing in complete media. Cells were adjusted to equal concentrations (2.5×10^6 cells/ml) and combined after removal of negative control aliquots. Incubation conditions for the cells were 5% CO2, 95% air at 37° C.
1. Add composition to each well of a 96-well plate and allow solvent to evaporate to dryness, if not aqueous.
2. Add 0.2 ml mixed lymphocytes (BALB/c+C57BL/6) to each well and mix.
3. Incubate in 5% CO2 at 37° C. for 86 hours.
4. Pulse wells with 0.1 ml ^3 H-thymidine (1 uCi/well).
5. Incubate in 5% CO2 at 37° C. for 6 hours.
6. Harvest plates and add 2 ml scintillant to each vial containing a filter disc.
7. Count vials in a liquid scintillation counter (Beckman).
8. Average replicate counts and report data as percent of positive control. The criteria for immunostimulatory effectiveness is a value of 150%, or greater, above control values for mixed lymphocytes in culture.

The compound `Cc1cc2c(cc3c(C)ccc1-3)C(C)CO2` (stereo not drawn) [Composition (1), dihydrolinderazulene] came in with an MIC in test [1] of 50 µg/mL (≈ 236 µM). The IC50 in test [2] stood at 35 µg/mL (≈ 165 µM). In test [3], the activity at 5 µg/mL turned out to be 255% and the activity at 50 µg/mL is 1%.
On to `Cc1ccc(C(C)C)cc2c(C)ccc1-2` [Composition (2), guaiazulene], for which inhibition of growth in test [1] (MIC) required 25 µg/mL (≈ 126 µM). Further, the IC50 in test [2] is 35 µg/mL (≈ 176 µM). In test [3], the activity at 5 µg/mL is 284% and the activity at 50 µg/mL worked out at 351%.
The like results for `Cc1cc2occ(C)c2cc2c(C)ccc1-2` [Composition (3), linderazulene] were, in that order, 12.5 µg/mL (≈ 59.4 µM), 50 µg/mL (≈ 238 µM), 155% and 19%.
